In ChEMBL document CHEMBL5653631, “A Potent and Selective ULK1 Inhibitor Suppresses Autophagy and Sensitizes Cancer Cells to Nutrient Stress” (iScience, 2018):

Tests used:
[1] = biological target: Serine/threonine-protein kinase MRCK beta (Homo sapiens) (UniProt Q9Y5S2); test: Inhibition of human recombinant MRCKb at 500 nM related to control ULK1
[2] = biological target: Fibroblast growth factor receptor 1 (Homo sapiens) (UniProt P11362); test: Inhibition of human recombinant FGFR1 at 500 nM in presence of ATP by radiometric assay relative to control
[3] = biological target: SRSF protein kinase 1 (Homo sapiens) (UniProt Q96SB4); test: Inhibition of human recombinant SRPK1 at 40 nM in presence of ATP by radiometric assay relative to control
[4] = biological target: T1, Testis-specific serine/threonine-protein kinase 2 (Homo sapiens) (UniProt Q96PF2); test: Inhibition of human recombinant TSSK2 at 40 nM in presence of ATP by radiometric assay relative to control
T1 sequence (whole entry): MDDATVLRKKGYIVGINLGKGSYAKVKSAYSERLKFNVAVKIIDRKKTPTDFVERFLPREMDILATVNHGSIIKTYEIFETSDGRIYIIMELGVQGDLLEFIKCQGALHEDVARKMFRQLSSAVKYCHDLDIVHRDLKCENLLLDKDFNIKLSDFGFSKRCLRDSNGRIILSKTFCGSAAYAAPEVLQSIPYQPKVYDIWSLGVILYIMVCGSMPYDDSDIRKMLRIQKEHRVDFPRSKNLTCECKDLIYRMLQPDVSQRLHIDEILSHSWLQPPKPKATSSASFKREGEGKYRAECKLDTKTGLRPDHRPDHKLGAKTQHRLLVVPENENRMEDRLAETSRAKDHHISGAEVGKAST

[5] = biological target: T2, Myosin-IIIb (Homo sapiens) (UniProt Q8WXR4); test: Inhibition of human recombinant MYO3B at 40 nM in presence of ATP by radiometric assay relative to control
T2 sequence (whole entry): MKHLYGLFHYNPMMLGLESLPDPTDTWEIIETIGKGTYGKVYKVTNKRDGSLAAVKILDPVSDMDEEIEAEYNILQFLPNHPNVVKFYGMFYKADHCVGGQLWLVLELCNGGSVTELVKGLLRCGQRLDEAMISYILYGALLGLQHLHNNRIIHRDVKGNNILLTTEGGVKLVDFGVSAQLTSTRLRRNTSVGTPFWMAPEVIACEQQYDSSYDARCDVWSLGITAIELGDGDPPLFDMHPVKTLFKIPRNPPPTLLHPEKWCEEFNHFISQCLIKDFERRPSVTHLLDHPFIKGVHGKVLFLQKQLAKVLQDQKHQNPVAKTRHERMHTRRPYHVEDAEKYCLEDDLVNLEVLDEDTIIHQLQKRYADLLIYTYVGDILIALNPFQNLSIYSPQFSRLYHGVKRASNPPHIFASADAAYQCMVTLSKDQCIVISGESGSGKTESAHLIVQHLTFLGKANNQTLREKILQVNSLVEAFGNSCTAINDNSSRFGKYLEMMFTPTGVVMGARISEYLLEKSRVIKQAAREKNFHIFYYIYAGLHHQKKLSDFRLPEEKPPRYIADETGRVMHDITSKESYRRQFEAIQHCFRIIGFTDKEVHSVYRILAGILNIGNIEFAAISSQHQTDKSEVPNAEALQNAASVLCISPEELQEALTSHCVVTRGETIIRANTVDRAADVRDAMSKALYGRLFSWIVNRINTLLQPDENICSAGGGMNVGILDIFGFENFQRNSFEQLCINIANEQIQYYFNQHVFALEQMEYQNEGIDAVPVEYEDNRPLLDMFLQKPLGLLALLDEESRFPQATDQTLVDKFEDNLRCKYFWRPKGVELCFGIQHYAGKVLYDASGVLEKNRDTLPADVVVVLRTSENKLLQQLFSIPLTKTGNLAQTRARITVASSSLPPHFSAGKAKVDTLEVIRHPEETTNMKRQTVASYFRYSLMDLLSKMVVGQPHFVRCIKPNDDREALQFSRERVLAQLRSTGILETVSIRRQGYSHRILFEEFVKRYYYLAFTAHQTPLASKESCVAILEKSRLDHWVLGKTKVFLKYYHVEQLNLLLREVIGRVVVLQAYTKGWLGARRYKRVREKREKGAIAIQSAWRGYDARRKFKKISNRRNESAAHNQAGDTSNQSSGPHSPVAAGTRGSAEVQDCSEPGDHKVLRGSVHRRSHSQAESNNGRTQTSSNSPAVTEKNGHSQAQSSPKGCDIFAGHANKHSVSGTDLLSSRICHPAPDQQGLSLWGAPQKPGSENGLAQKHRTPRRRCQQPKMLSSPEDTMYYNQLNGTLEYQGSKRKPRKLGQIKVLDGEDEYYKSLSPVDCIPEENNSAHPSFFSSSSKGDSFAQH

[6] = biological target: STE20-like serine/threonine-protein kinase (Homo sapiens) (UniProt Q9H2G2); test: Inhibition of human recombinant SLK at 40 nM in presence of ATP by radiometric assay relative to control
[7] = biological target: Tyrosine-protein kinase JAK1 (Homo sapiens) (UniProt P23458); test: Inhibition of human recombinant JAK1 at 40 nM in presence of ATP by radiometric assay relative to control
[8] = biological target: T3, SNF-related serine/threonine-protein kinase (Homo sapiens) (UniProt Q9NRH2); test: Inhibition of human recombinant SNRK at 40 nM related to control ULK1
T3 sequence (whole entry): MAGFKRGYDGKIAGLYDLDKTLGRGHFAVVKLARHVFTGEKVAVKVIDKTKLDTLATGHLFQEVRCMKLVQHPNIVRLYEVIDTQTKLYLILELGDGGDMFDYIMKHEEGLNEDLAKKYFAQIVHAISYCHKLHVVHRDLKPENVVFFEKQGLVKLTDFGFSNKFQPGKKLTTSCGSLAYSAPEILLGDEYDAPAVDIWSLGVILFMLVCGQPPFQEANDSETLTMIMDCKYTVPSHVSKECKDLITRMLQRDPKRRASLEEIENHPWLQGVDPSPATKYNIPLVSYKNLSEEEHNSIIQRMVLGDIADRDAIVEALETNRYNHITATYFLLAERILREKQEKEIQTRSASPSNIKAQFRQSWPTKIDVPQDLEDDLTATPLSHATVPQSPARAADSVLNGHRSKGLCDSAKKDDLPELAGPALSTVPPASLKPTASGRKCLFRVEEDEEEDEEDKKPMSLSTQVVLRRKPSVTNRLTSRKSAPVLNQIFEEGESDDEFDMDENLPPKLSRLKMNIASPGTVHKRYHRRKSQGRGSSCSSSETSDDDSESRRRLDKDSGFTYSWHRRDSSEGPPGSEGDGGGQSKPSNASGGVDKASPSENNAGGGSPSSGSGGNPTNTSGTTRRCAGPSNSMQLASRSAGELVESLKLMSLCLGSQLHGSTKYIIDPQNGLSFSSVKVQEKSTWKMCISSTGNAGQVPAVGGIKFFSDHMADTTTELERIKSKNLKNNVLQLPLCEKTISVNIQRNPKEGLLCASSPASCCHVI

Chain of STE20-like serine/threonine-protein kinase (Homo sapiens) (Q9H2G2 whole entry, looked up): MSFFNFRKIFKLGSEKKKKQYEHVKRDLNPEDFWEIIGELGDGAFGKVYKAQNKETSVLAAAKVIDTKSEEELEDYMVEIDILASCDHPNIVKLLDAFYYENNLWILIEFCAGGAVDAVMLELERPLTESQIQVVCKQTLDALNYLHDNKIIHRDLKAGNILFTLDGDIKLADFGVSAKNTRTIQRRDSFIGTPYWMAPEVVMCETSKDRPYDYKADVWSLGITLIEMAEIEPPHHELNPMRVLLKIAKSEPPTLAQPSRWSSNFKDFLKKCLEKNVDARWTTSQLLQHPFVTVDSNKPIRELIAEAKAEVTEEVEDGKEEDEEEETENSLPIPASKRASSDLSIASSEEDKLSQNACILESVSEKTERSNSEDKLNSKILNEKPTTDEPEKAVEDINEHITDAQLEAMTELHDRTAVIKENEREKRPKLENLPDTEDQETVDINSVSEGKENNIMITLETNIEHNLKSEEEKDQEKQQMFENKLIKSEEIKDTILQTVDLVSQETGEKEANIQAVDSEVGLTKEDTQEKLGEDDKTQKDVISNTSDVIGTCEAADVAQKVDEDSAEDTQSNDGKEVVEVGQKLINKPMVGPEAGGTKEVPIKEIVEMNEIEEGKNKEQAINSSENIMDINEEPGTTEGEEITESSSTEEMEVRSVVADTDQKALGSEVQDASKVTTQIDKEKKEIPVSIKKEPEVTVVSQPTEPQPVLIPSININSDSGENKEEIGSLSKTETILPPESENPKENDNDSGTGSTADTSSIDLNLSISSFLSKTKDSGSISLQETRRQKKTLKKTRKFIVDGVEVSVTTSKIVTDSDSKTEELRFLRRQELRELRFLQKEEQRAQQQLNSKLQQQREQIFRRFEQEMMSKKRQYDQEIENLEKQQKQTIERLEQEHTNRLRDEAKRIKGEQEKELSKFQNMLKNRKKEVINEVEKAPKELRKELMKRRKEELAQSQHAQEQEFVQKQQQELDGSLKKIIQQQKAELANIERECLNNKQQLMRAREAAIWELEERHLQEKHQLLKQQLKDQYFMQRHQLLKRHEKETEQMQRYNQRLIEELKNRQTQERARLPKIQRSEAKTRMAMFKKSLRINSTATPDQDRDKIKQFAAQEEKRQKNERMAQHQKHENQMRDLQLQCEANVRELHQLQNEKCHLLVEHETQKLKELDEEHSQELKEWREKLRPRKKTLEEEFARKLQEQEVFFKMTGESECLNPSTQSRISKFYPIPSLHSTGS
Chain of Fibroblast growth factor receptor 1 (Homo sapiens) (P11362 22-822 limits assumed): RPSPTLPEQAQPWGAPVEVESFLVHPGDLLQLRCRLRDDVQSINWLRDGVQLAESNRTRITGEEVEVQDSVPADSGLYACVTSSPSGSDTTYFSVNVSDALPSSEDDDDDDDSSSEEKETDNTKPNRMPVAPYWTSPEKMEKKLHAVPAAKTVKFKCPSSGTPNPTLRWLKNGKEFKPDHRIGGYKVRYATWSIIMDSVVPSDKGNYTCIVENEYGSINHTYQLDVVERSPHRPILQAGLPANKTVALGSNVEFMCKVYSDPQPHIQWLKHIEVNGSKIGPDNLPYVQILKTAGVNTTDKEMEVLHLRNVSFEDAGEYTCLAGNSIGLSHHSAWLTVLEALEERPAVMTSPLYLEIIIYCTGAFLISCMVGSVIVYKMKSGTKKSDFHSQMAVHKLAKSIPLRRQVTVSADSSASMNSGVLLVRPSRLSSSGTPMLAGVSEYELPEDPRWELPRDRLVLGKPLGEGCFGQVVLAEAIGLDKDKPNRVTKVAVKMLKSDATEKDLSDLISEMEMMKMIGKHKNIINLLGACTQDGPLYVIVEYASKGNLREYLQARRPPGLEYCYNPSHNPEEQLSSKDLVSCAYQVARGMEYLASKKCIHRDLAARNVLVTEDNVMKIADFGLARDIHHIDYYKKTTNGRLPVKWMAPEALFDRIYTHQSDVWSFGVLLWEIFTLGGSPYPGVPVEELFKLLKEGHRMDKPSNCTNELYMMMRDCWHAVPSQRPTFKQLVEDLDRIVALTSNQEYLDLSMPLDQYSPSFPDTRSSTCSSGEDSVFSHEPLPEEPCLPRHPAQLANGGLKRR
Chain of SRSF protein kinase 1 (Homo sapiens) (Q96SB4 whole entry): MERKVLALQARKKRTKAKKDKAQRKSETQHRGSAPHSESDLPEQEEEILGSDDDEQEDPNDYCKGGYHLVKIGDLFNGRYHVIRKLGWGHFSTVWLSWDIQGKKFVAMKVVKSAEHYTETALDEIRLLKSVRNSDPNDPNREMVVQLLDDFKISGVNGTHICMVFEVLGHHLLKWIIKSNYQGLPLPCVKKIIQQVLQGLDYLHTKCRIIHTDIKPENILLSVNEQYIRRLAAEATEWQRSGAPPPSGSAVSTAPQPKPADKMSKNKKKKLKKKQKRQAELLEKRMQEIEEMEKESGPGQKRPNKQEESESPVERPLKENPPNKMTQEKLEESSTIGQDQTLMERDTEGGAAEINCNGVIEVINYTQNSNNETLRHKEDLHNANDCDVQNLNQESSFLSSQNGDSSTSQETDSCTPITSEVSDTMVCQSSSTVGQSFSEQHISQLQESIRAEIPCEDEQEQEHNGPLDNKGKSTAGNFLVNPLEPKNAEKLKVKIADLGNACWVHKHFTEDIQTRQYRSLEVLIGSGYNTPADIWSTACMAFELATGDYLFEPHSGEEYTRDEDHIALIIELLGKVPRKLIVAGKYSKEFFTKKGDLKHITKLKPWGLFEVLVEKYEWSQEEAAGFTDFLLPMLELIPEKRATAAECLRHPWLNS
Chain of Serine/threonine-protein kinase MRCK beta (Homo sapiens) (Q9Y5S2 whole entry): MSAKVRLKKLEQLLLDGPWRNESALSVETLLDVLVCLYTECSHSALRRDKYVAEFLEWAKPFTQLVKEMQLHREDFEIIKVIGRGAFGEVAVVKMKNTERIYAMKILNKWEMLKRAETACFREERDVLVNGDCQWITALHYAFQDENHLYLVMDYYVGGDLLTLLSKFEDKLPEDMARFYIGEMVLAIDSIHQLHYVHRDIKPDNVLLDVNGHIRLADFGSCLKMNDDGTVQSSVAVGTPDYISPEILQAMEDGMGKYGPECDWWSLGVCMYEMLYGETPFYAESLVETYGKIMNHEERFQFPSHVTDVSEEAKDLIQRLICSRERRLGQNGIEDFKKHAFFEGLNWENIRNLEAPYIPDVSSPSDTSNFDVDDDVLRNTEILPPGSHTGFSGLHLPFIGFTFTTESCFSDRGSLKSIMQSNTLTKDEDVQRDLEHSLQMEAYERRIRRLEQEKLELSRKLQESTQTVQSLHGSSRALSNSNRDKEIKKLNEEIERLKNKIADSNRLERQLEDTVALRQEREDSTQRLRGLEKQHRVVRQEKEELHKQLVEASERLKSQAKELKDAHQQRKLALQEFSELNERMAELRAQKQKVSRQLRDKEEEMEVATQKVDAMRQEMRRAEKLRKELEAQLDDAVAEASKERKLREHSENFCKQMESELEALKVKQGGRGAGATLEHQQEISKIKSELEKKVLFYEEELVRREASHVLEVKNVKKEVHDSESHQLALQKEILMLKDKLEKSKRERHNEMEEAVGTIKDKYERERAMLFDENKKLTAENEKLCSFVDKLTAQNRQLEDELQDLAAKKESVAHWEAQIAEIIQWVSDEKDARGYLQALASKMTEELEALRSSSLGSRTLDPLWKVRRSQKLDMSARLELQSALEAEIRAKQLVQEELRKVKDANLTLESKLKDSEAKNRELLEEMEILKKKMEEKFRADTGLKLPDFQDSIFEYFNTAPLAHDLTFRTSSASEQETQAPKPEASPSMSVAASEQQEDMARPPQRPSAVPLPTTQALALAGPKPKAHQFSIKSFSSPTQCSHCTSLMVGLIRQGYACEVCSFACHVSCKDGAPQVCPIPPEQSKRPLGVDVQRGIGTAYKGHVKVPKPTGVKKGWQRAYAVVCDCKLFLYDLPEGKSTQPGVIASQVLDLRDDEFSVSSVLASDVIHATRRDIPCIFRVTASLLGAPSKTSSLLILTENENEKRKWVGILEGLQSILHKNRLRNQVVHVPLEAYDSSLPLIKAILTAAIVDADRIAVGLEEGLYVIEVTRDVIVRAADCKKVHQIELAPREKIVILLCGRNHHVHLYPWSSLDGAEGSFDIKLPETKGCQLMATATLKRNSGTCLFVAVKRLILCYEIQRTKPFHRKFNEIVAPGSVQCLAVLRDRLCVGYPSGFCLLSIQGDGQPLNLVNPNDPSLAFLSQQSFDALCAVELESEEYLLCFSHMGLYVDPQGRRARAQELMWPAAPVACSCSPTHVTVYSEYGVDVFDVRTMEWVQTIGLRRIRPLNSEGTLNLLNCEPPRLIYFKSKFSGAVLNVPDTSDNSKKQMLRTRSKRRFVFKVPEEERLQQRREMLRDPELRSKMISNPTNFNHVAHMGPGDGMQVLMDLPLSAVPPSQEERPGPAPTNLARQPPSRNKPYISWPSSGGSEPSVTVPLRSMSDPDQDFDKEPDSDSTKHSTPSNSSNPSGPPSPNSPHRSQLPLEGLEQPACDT

Row | fold change (FC) [1] | inhibition [2] [%] | inhibition [3] [%] | inhibition [4] [%] | inhibition [5] [%] | inhibition [6] [%] | inhibition [7] [%] | fold change (FC) [8] | Compound
1 | 0 | 35 |  |  |  |  |  |  | CNC(=O)c1ccccc1Oc1nc(Nc2cc(OC)c(OC)c(OC)c2)ncc1Br
2 |  |  | 10 | 0 | 0 | 0 | 0 | 0 | O=C(N[C@@H](C1CC1)C(F)(F)F)c1cc(-c2cnn3cc(-c4ccc(F)cc4)cnc23)cs1
